Each structure is given as a SMILES string.

Broadly, the EC50 is the concentration giving half of the maximal effect. Usually Emax stands for the greatest response seen or fitted, relative to the assay's reference.

For the test, the target named is human F508del-CFTR (Homo sapiens, UniProt P13569, DEL508-508). Briefly: F508del-CFTR cell surface expression (corrector activity), DiscoveRx ß-galactosidase complementation chemiluminescence assay in recombinant U2OS cell line.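 For all read-outs here: U2OS cells co-expressing ProLink-tagged F508del-CFTR and a membrane-anchored enzyme acceptor, where more surface CFTR restores β-galactosidase activity measured by chemiluminescence.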 Particulars: U2OS cells, 16h compound incubation; for EC50: EC50, F508del-CFTR cell surface expression, geomean of several measurements; for Emax: U2OS, in relation to the Emax of the corrector lumacaftor (=100%), arithmetic mean.
Sequence of human F508del-CFTR (P13569 with tags, fused parts or gaps DEL508-508): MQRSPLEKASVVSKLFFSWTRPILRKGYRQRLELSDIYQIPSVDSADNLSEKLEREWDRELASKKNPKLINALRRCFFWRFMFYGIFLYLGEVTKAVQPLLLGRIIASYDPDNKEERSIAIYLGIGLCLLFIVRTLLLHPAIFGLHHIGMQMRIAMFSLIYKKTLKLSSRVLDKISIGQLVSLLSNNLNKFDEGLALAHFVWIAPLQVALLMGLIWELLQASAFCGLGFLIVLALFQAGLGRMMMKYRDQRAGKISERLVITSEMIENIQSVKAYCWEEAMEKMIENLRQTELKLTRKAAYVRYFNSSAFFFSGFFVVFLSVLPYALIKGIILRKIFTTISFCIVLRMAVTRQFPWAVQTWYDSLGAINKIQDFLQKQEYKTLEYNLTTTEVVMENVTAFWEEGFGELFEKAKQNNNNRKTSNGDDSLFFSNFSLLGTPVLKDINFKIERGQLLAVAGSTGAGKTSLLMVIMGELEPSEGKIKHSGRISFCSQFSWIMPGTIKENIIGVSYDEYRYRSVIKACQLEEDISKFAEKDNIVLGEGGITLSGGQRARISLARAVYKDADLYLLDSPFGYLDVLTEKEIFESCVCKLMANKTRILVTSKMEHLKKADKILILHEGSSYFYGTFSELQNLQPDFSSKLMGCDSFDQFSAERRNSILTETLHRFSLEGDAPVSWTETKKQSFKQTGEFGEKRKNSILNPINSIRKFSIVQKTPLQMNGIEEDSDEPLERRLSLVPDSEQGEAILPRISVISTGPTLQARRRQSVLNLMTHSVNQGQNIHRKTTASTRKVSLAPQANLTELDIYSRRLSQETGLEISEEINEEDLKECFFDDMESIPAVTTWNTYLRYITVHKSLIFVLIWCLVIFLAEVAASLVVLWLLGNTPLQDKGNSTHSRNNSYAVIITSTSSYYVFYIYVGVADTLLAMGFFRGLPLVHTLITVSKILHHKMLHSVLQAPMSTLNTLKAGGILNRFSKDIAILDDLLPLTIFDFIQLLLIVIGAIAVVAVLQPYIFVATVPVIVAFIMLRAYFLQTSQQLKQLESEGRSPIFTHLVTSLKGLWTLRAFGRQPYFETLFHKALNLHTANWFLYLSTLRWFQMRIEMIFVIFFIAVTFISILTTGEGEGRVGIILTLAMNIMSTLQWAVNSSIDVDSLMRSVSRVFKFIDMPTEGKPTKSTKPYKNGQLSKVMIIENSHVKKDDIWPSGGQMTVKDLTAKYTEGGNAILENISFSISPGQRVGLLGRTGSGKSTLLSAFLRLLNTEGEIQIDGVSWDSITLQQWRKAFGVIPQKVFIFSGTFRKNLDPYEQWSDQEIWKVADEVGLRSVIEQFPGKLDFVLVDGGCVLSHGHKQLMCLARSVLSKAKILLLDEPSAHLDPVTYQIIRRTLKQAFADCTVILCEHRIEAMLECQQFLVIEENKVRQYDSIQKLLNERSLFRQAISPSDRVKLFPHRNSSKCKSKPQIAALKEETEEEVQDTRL

As to `CCOCC[C@@H]1C(=O)N[C@H](Cc2ccccc2)COc2ccc3ncc(F)cc3c2C(=O)N[C@H](C(=O)NCCc2cc(OC)no2)CC(=O)N(C)[C@@H](CC(C)C)C(=O)N1C` [Example 895, (3S,7S,10R,13R)-13-benzyl-10-(2-ethoxyethyl)-20-fluoro-7-isobutyl-N-(2-(3-methoxyisoxazol-5-yl)ethyl)-6,9-dimethyl-1,5,8,11-tetraoxo-1,2,3,4,5,6,7,8,9,10,11,12,13,14-tetradecahydro-[1]oxa[4,7,10,14]tetraazacycloheptadecino[16,17-f]quinoline-3-carboxamide], the EC50 was determined as 136 nM and the Emax amounted to 409%.

As for `CCOCC[C@@H]1C(=O)N[C@H](Cc2ccccc2)COc2ccc3ncc(F)cc3c2C(=O)N[C@H](C(=O)NCCn2nnc(C3CC3)n2)CC(=O)N(C)[C@@H](CC(C)C)C(=O)N1C` [Example 896, (3S,7S,10R,13R)-13-benzyl-N-(2-(5-cyclopropyl-2H-tetrazol-2-yl)ethyl)-10-(2-ethoxyethyl)-20-fluoro-7-isobutyl-6,9-dimethyl-1,5,8,11-tetraoxo-1,2,3,4,5,6,7,8,9,10,11,12,13,14-tetradecahydro-[1]oxa[4,7,10,14]tetraazacycloheptadecino[16,17-f]quinoline-3-carboxamide], the EC50 came to 188 nM and the Emax came out at 427%.

As to `COc1cc(CCNC(=O)[C@@H]2CC(=O)N(C)[C@@H](CC(C)C)C(=O)N(C)[C@H](Cc3nc(C(F)(F)F)no3)C(=O)N[C@H](Cc3ccccc3)COc3cc(C)nc(OC)c3C(=O)N2)on1` [Example 897, (3R,6R,9S,13S)-3-benzyl-9-isobutyl-16-methoxy-N-(2-(3-methoxyisoxazol-5-yl)ethyl)-7,10,18-trimethyl-5,8,11,15-tetraoxo-6-((3-(trifluoromethyl)-1,2,4-oxadiazol-5-yl)methyl)-2,3,4,5,6,7,8,9,10,11,12,13,14,15-tetradecahydropyrido[3,4-p][1]oxa[4,7,10,14]tetraazacycloheptadecine-13-carboxamide], the EC50 was 32 nM and the Emax was 454%.

With `COc1cc(CCNC(=O)[C@@H]2CC(=O)N(C)[C@@H](CC(C)C)C(=O)N(C)[C@H](Cc3nc(C(F)(F)F)no3)C(=O)N[C@H](Cc3ccccc3)COc3ccc4cnc(C)cc4c3C(=O)N2)on1` [Example 898, (3S,7S,10R,13R)-13-benzyl-7-isobutyl-N-(2-(3-methoxyisoxazol-5-yl)ethyl)-6,9,20-trimethyl-1,5,8,11-tetraoxo-10-((3-(trifluoromethyl)-1,2,4-oxadiazol-5-yl)methyl)-1,2,3,4,5,6,7,8,9,10,11,12,13,14-tetradecahydro-[1]oxa[4,7,10,14]tetraazacycloheptadecino[16,17-f]isoquinoline-3-carboxamide], the EC50 is 22 nM and the Emax is 440%.

Regarding `Cc1cc2c3c(ccc2cn1)OC[C@@H](Cc1ccccc1)NC(=O)C1(CC1)N(C)C(=O)[C@H](CC(C)C)N(C)C(=O)C[C@@H](C(=O)NCCc1noc(C2CC2)n1)NC3=O` [Example 900, (3′S,7′S,13′R)-13′-benzyl-N-(2-(5-cyclopropyl-1,2,4-oxadiazol-3-yl)ethyl)-7′-isobutyl-6′,9′,20′-trimethyl-1′,5′,8′,11′-tetraoxo-2′,3′,4′,5′,6′,7′,8′,9′,11′,12′,13′,14′-dodecahydro-1′H-spiro[cyclopropane-1,10′-[1]oxa[4,7,10,14]tetraazacycloheptadecino[16,17-f]isoquinoline]-3′-carboxamide], the EC50 amounted to 831 nM and the Emax is 374%.

For `COc1cc(CCNC(=O)[C@@H]2CC(=O)N(C)[C@@H](CC(C)C)C(=O)N(C)C3(CC3)C(=O)N[C@H](Cc3ccccc3)COc3ccc4cnc(C)cc4c3C(=O)N2)on1` [Example 901, (3′S,7′S,13′R)-13′-benzyl-7′-isobutyl-N-(2-(3-methoxyisoxazol-5-yl)ethyl)-6′,9′,20′-trimethyl-1′,5′,8′,11′-tetraoxo-2′,3′,4′,5′,6′,7′,8′,9′,11′,12′,13′,14′-dodecahydro-1′H-spiro[cyclopropane-1,10′-[1]oxa[4,7,10,14]tetraazacycloheptadecino[16,17-f]isoquinoline]-3′-carboxamide], the EC50 is 736 nM and the Emax stood at 390%.

Regarding `COc1nc(C)cc2c1C(=O)N[C@H](C(=O)NCCn1nnc(C3CC3)n1)CC(=O)N(C)[C@@H](CC(C)C)C(=O)N(C)[C@H](Cc1nc(C(F)(F)F)no1)C(=O)N[C@H](Cc1ccccc1)CO2` [Example 902, (3R,6R,9S,13S)-3-benzyl-N-(2-(5-cyclopropyl-2H-tetrazol-2-yl)ethyl)-9-isobutyl-16-methoxy-7,10,18-trimethyl-5,8,11,15-tetraoxo-6-((3-(trifluoromethyl)-1,2,4-oxadiazol-5-yl)methyl)-2,3,4,5,6,7,8,9,10,11,12,13,14,15-tetradecahydropyrido[3,4-p][1]oxa[4,7,10,14]tetraazacycloheptadecine-13-carboxamide], the EC50 amounted to 55 nM and the Emax is 453%.

In the case of `COc1nc(C)cc2c1C(=O)N[C@H](C(=O)NCCn1nc3ccccc3n1)CC(=O)N(C)[C@@H](CC(C)C)C(=O)N(C)[C@H](Cc1nc(C(F)(F)F)no1)C(=O)N[C@H](Cc1ccccc1)CO2` [Example 903, (3R,6R,9S,13S)-N-(2-(2H-benzo[d][1,2,3]triazol-2-yl)ethyl)-3-benzyl-9-isobutyl-16-methoxy-7,10,18-trimethyl-5,8,11,15-tetraoxo-6-((3-(trifluoromethyl)-1,2,4-oxadiazol-5-yl)methyl)-2,3,4,5,6,7,8,9,10,11,12,13,14,15-tetradecahydropyrido[3,4-p][1]oxa[4,7,10,14]tetraazacycloheptadecine-13-carboxamide], the EC50 was determined as 51 nM and the Emax was determined as 414%.

In the case of `Cc1cc2c3c(ccc2cn1)OC[C@@H](Cc1ccccc1)NC(=O)C1(CC1)N(C)C(=O)[C@H](CC(C)C)N(C)C(=O)C[C@@H](C(=O)NCCn1nc2ccccc2n1)NC3=O` [Example 904, (3′S,7′S,13′R)-N-(2-(2H-benzo[d][1,2,3]triazol-2-yl)ethyl)-13′-benzyl-7′-isobutyl-6′,9′,20′-trimethyl-1′,5′,8′,11′-tetraoxo-2′,3′,4′,5′,6′,7′,8′,9′,11′,12′,13′,14′-dodecahydro-1′H-spiro[cyclopropane-1,10′-[1]oxa[4,7,10,14]tetraazacycloheptadecino[16,17-f]isoquinoline]-3′-carboxamide], the EC50 was 722 nM and the Emax was 365%.

For the molecule `Cc1cc2c3c(ccc2cn1)OC[C@@H](Cc1ccccc1)NC(=O)[C@@H](Cc1nc(-c2ccc(F)cn2)no1)N(C)C(=O)[C@H](CC(C)C)N(C)C(=O)C[C@@H](C(=O)NCCc1noc(C2CC2)n1)NC3=O` [Example 905], the concentration giving a half-maximal response (EC50) came to 311 nM and the Emax is 415%.

For the molecule `COc1cc(CCNC(=O)[C@@H]2CC(=O)N(C)[C@@H](CC(C)C)C(=O)N(C)[C@H](Cc3nc(-c4ccc(F)cn4)no3)C(=O)N[C@H](Cc3ccccc3)COc3ccc4cnc(C)cc4c3C(=O)N2)on1` [Example 906, (3S,7S,10R,13R)-13-benzyl-10-((3-(5-fluoropyridin-2-yl)-1,2,4-oxadiazol-5-yl)methyl)-7-isobutyl-N-(2-(3-methoxyisoxazol-5-yl)ethyl)-6,9,20-trimethyl-1,5,8,11-tetraoxo-1,2,3,4,5,6,7,8,9,10,11,12,13,14-tetradecahydro-[1]oxa[4,7,10,14]tetraazacycloheptadecino[16,17-f]isoquinoline-3-carboxamide], the EC50 is 294 nM and the Emax amounted to 433%.

With `Cc1cc2c3c(ccc2cn1)OC[C@@H](Cc1ccccc1)NC(=O)[C@@H](Cc1nc(-c2ccc(F)cn2)no1)N(C)C(=O)[C@H](CC(C)C)N(C)C(=O)C[C@@H](C(=O)NCCn1nnc(C2CC2)n1)NC3=O` [Example 907], the EC50 is 425 nM and the Emax is 454%.

For the molecule `CC(C)C[C@H]1C(=O)N(C)[C@H](Cc2nc(C(F)(F)F)no2)C(=O)N[C@H](Cc2ccccc2)COc2ccc3ncc(F)cc3c2C(=O)N[C@H](C(=O)NCCc2nc3ncccn3n2)CC(=O)N1C` [Example 908, (3S,7S,10R,13R)-N-(2-([1,2,4]triazolo[1,5-a]pyrimidin-2-yl)ethyl)-13-benzyl-20-fluoro-7-isobutyl-6,9-dimethyl-1,5,8,11-tetraoxo-10-((3-(trifluoromethyl)-1,2,4-oxadiazol-5-yl)methyl)-1,2,3,4,5,6,7,8,9,10,11,12,13,14-tetradecahydro-[1]oxa[4,7,10,14]tetraazacycloheptadecino[16,17-f]quinoline-3-carboxamide], the EC50 came to 94 nM and the Emax is 401%.

For the molecule `COc1cc(CCNC(=O)[C@@H]2CC(=O)N(C)[C@@H](CC(C)C)C(=O)N(C)[C@H](Cc3nc(C(F)(F)F)no3)C(=O)N[C@H](Cc3ccccc3)COc3cc(C)c4ncccc4c3C(=O)N2)on1` [Example 909, (3S,7S,10R,13R)-13-benzyl-7-isobutyl-N-(2-(3-methoxyisoxazol-5-yl)ethyl)-6,9,17-trimethyl-1,5,8,11-tetraoxo-10-((3-(trifluoromethyl)-1,2,4-oxadiazol-5-yl)methyl)-1,2,3,4,5,6,7,8,9,10,11,12,13,14-tetradecahydro-[1]oxa[4,7,10,14]tetraazacycloheptadecino[16,17-f]quinoline-3-carboxamide], the EC50 worked out at 17 nM and the Emax came out at 430%.

`CCOCC[C@@H]1C(=O)N[C@H](Cc2ccccc2)COc2cc(C)nc(OC)c2C(=O)N[C@H](C(=O)NCCc2cc(C3CC3)no2)CC(=O)N(C)[C@@H](CC(C)C)C(=O)N1C` [Example 910, (3R,6R,9S,13S)-3-benzyl-N-(2-(3-cyclopropylisoxazol-5-yl)ethyl)-6-(2-ethoxyethyl)-9-isobutyl-16-methoxy-7,10,18-trimethyl-5,8,11,15-tetraoxo-2,3,4,5,6,7,8,9,10,11,12,13,14,15-tetradecahydropyrido[3,4-p][1]oxa[4,7,10,14]tetraazacycloheptadecine-13-carboxamide]: the EC50 turned out to be 477 nM and the maximal effect (Emax) worked out at 423%.

The values above are taken from patent publication US20240208992A1, “MACROCYCLES AS CFTR MODULATORS” (Idorsia Pharmaceuticals Ltd, priority 2021, published 2024).
